Measurements as given in ChEMBL document CHEMBL1140798, “Novel thiol-based TACE inhibitors. Part 2: Rational design, synthesis, and SAR of thiol-containing aryl sulfones” (Bioorg Med Chem Lett, 2008).

Columns and labels:
[1] = target: Disintegrin and metalloproteinase domain-containing protein 17 (Homo sapiens, UniProt P78536); assay: Inhibition of TACE
Collagenase 3 = Collagenase 3 (Homo sapiens, UniProt P45452); assay: Inhibition of MMP13
Matrilysin = target: T1, Matrilysin (Homo sapiens, UniProt P09237); assay: Inhibition of MMP7
T1 sequence (P09237 whole entry): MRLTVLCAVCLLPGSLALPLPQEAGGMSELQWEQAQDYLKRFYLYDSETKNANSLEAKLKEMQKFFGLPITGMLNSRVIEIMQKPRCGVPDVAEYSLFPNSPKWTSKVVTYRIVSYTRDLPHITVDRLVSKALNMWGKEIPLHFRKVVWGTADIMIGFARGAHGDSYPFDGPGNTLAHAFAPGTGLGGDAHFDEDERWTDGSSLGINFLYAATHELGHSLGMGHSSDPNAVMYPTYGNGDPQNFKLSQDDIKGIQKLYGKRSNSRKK

[2] = target: 72 kDa type IV collagenase (Homo sapiens, UniProt P08253); assay: Inhibition of MMP2
Chain of 72 kDa type IV collagenase (P08253 whole entry): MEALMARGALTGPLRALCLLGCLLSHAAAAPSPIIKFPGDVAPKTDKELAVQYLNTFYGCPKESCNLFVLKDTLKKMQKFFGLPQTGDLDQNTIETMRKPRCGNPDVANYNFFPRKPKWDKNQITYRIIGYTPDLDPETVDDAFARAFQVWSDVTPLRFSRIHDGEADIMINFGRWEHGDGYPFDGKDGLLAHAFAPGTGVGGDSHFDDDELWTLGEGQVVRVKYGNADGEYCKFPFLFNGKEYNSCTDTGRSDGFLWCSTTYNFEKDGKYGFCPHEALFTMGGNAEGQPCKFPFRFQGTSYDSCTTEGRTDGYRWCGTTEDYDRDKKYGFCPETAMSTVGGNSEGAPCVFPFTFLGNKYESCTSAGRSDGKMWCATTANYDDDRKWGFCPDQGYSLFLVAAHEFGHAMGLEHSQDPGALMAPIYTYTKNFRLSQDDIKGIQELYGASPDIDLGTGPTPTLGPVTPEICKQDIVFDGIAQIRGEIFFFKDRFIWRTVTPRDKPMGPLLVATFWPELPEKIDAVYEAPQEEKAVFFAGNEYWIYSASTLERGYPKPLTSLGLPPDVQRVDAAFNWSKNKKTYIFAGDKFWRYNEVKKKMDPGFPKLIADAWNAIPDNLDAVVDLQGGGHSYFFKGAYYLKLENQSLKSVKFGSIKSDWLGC

Neutrophil collagenase = Neutrophil collagenase (Homo sapiens, UniProt P22894); assay: Inhibition of MMP8
Chain of Neutrophil collagenase (P22894 whole entry): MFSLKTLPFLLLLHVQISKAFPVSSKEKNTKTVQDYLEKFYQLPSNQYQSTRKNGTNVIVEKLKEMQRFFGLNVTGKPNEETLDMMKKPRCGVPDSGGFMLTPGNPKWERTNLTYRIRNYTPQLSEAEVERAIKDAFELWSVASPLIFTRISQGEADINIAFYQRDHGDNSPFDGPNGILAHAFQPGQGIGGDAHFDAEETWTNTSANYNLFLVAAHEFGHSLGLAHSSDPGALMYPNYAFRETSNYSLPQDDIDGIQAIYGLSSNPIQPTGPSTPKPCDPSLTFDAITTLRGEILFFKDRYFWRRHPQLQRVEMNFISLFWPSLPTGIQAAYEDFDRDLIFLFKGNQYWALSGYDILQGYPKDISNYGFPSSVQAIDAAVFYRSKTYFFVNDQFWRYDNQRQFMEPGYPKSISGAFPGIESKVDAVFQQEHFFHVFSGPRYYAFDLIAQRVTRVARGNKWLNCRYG

[3] = target: Matrix metalloproteinase-9 (Homo sapiens, UniProt P14780); assay: Inhibition of MMP9
Chain of Matrix metalloproteinase-9 (P14780 whole entry): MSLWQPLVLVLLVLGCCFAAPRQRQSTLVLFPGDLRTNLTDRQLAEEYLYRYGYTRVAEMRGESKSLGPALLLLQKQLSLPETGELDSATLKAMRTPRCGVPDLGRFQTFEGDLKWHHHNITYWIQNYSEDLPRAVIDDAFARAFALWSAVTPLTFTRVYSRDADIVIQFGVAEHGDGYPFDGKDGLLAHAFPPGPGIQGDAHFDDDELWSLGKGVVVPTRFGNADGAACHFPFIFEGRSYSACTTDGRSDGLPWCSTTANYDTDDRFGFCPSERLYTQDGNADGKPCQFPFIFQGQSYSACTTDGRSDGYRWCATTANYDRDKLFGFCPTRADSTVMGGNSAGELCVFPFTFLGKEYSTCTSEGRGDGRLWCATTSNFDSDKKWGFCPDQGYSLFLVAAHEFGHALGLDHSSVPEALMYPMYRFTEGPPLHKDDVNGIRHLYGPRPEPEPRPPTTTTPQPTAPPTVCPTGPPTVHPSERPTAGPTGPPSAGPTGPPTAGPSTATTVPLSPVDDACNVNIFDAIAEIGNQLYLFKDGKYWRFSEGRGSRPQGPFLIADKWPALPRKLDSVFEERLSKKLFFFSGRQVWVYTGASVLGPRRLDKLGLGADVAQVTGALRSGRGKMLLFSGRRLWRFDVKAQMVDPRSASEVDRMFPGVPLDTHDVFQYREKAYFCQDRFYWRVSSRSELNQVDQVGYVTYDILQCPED

Chain of Disintegrin and metalloproteinase domain-containing protein 17 (P78536 whole entry, the tested form may be a part): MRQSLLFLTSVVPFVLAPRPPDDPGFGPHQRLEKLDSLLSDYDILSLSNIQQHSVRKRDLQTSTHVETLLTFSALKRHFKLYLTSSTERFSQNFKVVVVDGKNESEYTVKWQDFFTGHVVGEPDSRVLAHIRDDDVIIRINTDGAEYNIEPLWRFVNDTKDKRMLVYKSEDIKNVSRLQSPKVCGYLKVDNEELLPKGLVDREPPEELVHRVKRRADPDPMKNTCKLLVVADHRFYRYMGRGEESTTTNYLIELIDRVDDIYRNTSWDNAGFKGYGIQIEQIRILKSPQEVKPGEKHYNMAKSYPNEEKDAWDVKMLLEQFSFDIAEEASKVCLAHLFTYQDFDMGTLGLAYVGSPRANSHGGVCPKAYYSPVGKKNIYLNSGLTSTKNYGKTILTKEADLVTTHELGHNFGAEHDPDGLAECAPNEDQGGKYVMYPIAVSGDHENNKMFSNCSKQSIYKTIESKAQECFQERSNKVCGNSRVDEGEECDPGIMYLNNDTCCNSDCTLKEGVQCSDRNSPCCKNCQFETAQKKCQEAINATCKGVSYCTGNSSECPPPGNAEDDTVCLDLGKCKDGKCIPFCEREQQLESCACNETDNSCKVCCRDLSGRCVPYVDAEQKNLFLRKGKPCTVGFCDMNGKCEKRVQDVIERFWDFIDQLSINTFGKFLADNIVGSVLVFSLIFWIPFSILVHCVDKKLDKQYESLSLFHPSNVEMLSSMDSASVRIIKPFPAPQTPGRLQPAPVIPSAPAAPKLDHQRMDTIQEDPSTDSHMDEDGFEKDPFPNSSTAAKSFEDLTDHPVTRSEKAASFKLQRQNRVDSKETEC

Ki [1] | Structure (SMILES) | other results
0.05 µM | CC#CCOc1ccc(S(=O)(=O)C2CCC(S)C2)cc1 (stereo unspecified) | 
0.008 µM | CC#CCOc1ccc(S(=O)(=O)CCS)cc1 | 
0.002 µM | CC#CCNc1ccc(S(=O)(=O)CCS)cc1 | 
0.0045 µM | CC#CCNc1ccc(S(=O)(=O)CCCS)cc1 | 
0.03 µM | CC#CCOc1ccc(S(=O)(=O)[C@@H]2CCC[C@@H](S)C2)cc1 | 
 | CC#CCOc1ccc(S(=O)(=O)CCCS)cc1 | Ki (Collagenase 3): 1.7 µM; Ki (Matrilysin): > 2.5 µM; Ki [2]: 1.3 µM; Ki (Neutrophil collagenase): 2.7 µM; Ki [3]: 6.3 µM

Structure (SMILES) | Ki [1] | other results
CC#CCNc1ccc(S(=O)(=O)[C@@H]2CCC[C@@H](S)C2)cc1 | 0.017 µM | 
